Each structure is given as a SMILES string.

As a reminder, the EC50 is the midpoint of the concentration-response curve.

The subject of one experiment is Respiratory syncytial virus (RSV) strain A2. Put plainly: RSV antiviral assay (HEp-2, 96 well). The experiment is classed as cell-based. Conditions: human respiratory syncytial virus, HEp-2, 96 h, read-out: EC50 RSV HEP2 96, HEp-2 cells, RSV A2, MOI=4, 4 days, 96 well; Table 3.
Regarding `CC(=O)O[C@H]1[C@@H](OC(C)=O)[C@](C#N)(c2ccc3c(N)ncnn23)O[C@@H]1COP(=O)(N[C@@H](C)C(=O)OC1CCC1)Oc1ccc(C2CC2)cc1` (single isomer, unassigned) [Example 53a], the half-maximal effective concentration (EC50) was 0.0381 µM.

Regarding `CC(C)C(=O)O[C@H]1[C@@H](OC(=O)C(C)C)[C@](C#N)(c2ccc3c(N)ncnn23)O[C@@H]1COP(=O)(N[C@@H](C)C(=O)OC1CCCCCCC1)Oc1ccc(C(C)(C)C)cc1` (single isomer, unassigned) [Example 77a], the half-maximal effective concentration (EC50) came out at 0.194 µM.

On to `C[C@H](NP(=O)(OC[C@H]1O[C@@](C#N)(c2ccc3c(N)ncnn23)[C@H](O)[C@@H]1O)Oc1ccc(C(C)(C)C)cc1)C(=O)O[C@H]1CC[C@H](C(F)(F)F)CC1` (single isomer, unassigned) [Example 84a], for which the EC50 was 0.185 µM.

On to `CC(C)C(=O)O[C@H]1[C@@H](OC(=O)C(C)C)[C@](C#N)(c2ccc3c(N)ncnn23)O[C@@H]1COP(=O)(N[C@@H](C)C(=O)O[C@H]1CC[C@H](C(F)(F)F)CC1)Oc1ccc(C(C)(C)C)cc1` (single isomer, unassigned) [Example 85a], for which the EC50 amounted to 0.0627 µM.

Take `CCC(CC)COC(=O)[C@H](C)NP(=O)(OC[C@H]1O[C@@](C#N)(c2ccc3c(N)ncnn23)[C@H](O)[C@@H]1O)Oc1ccc2ccccc2c1` (single isomer, unassigned) [Intermediate S3-a]: the EC50 is 0.0283 µM.

For `CCC(=O)O[C@@H]1[C@H](OC(=O)C(N)C(C)C)[C@@H](COP(=O)(N[C@@H](C)C(=O)OCC(CC)CC)Oc2ccccc2)O[C@@]1(C#N)c1ccc2c(N)ncnn12` (stereo in doubt) [Example 88, [(2R,3R,4R,5R)-5-(4-aminopyrrolo[2,1-f][1,2,4]triazin-7-yl)-5-cyano-2-[[[[(1S)-2-(2-ethylbutoxy)-1-methyl-2-oxo-ethyl]amino]-phenoxy-phosphoryl]oxymethyl]-4-propanoyloxy-tetrahydrofuran-3-yl] (2R)-2-amino-3-methyl-butanoate], the EC50 was 0.0214 µM.

For the molecule `C[C@H](NP(=O)(OC[C@H]1O[C@@](C#N)(c2ccc3c(N)ncnn23)[C@H](O)[C@@H]1O)Oc1ccc(C2CC2)cc1)C(=O)OC1CCC1` (stereo partly drawn) [Example 51a, cyclobutyl (2S)-2-[[[(2R,3S,4R,5R)-5-(4-aminopyrrolo[2,1-f][1,2,4]triazin-7-yl)-5-cyano-3,4-dihydroxy-tetrahydrofuran-2-yl]methoxy-(cyclopropylphenoxy)phosphoryl]amino]propanoate], the EC50 is 0.0661 µM.

On to `CC(C)C(=O)O[C@H]1[C@@H](OC(=O)C(C)C)[C@](C#N)(c2ccc3c(N)ncnn23)O[C@@H]1COP(=O)(N[C@@H](C)C(=O)OCCC(C)(C)C)Oc1ccc(C(C)(C)C)cc1` (stereo partly drawn) [Example 62, [(2R,3R,4R,5R)-5-(4-aminopyrrolo[2,1-f][1,2,4]triazin-7-yl)-2-[[(4-tert-butylphenoxy)-[[(1S)-2-(3,3-dimethylbutoxy)-1-methyl-2-oxo-ethyl]amino]phosphoryl]oxymethyl]-5-cyano-4-(2-methylpropanoyloxy)tetrahydrofuran-3-yl] 2-methylpropanoate], for which the half-maximal effective concentration (EC50) came to 0.0706 µM.

For `CCOC(=O)[C@H](C)NP(=O)(OC[C@H]1O[C@@](C#N)(c2ccc3c(N)ncnn23)[C@H](O)[C@@H]1O)Oc1ccc(C(C)C)cc1` (stereo partly drawn) [Example 63a], the half-maximal effective concentration (EC50) was determined as 0.104 µM.

For the molecule `CCOC(=O)[C@H](C)NP(=O)(OC[C@H]1O[C@@](C#N)(c2ccc3c(N)ncnn23)[C@H](OC(=O)C(C)C)[C@@H]1OC(=O)C(C)C)Oc1ccc(C(C)C)cc1` (stereo partly drawn) [Example 64, [(2R,3R,4R,5R)-5-(4-aminopyrrolo[2,1-f][1,2,4]triazin-7-yl)-5-cyano-2-[[[[(1S)-2-ethoxy-1-methyl-2-oxo-ethyl]amino]-(4-isopropylphenoxy)phosphoryl]-oxymethyl]-4-(2-methylpropanoyloxy)tetrahydrofuran-3-yl] 2-methylpropanoate], the half-maximal effective concentration (EC50) amounted to 0.0579 µM.

Take `CCC(CC)COC(=O)[C@H](C)NP(=O)(OC[C@H]1O[C@@](C#N)(c2ccc3c(N)ncnn23)[C@H](O)[C@@H]1O)Oc1cccc(C(C)(C)C)c1` (stereo partly drawn) [Example 68a]: the half-maximal effective concentration (EC50) was 0.0608 µM.

The experiment is the same for the next values; noted with them: read-out: EC50 RSV HEP2 96; HEp-2 cells, RSV A2, MOI=4, 4 days, 96 well; Table 3.
In the case of `CC(C)C(=O)O[C@H]1[C@@H](OC(=O)C(C)C)[C@](C#N)(c2ccc3c(N)ncnn23)O[C@@H]1COP(=O)(N[C@@H](C)C(=O)OCCC(C)(C)C)Oc1ccccc1` (single isomer, unassigned) [Example 56a], the half-maximal effective concentration (EC50) worked out at 0.0355 µM.

Consider `CC(C)C(=O)O[C@H]1[C@@H](OC(=O)C(C)C)[C@](C#N)(c2ccc3c(N)ncnn23)O[C@@H]1COP(=O)(N[C@@H](C)C(=O)OCCC(C)(C)C)Oc1ccccc1` (single isomer, unassigned) [Example 56b], for which the EC50 is 0.0747 µM.

As to `CC(C)C(=O)O[C@H]1[C@@H](OC(=O)C(C)C)[C@](C#N)(c2ccc3c(N)ncnn23)O[C@@H]1COP(=O)(N[C@@H](C)C(=O)OC1CCCCCCC1)Oc1ccc(C(C)(C)C)cc1` (single isomer, unassigned) [Example 77b], the EC50 came out at 0.198 µM.

As for `C[C@H](NP(=O)(OC[C@H]1O[C@@](C#N)(c2ccc3c(N)ncnn23)[C@H](O)[C@@H]1O)Oc1ccc(C(C)(C)C)cc1)C(=O)O[C@H]1CC[C@H](C(F)(F)F)CC1` (single isomer, unassigned) [Example 84b], the concentration for a half-maximal effect (EC50) stood at 0.186 µM.

In the case of `CC(C)C(=O)O[C@H]1[C@@H](OC(=O)C(C)C)[C@](C#N)(c2ccc3c(N)ncnn23)O[C@@H]1COP(=O)(N[C@@H](C)C(=O)O[C@H]1CC[C@H](C(F)(F)F)CC1)Oc1ccc(C(C)(C)C)cc1` (single isomer, unassigned) [Example 85b], the concentration for a half-maximal effect (EC50) came out at 0.0805 µM.

With `C[C@H](NP(=O)(OC[C@H]1O[C@@](C#N)(c2ccc3c(N)ncnn23)[C@H](O)[C@@H]1O)Oc1cccc2ccccc12)C(=O)OC1CCC1` (single isomer, unassigned) [Intermediate P7a-1], the EC50 was 0.224 µM.

Turning to `C[C@H](NP(=O)(OC[C@H]1O[C@@](C#N)(c2ccc3c(N)ncnn23)[C@H](O)[C@@H]1O)Oc1ccc(C2CC2)cc1)C(=O)OC1CCC1` (stereo partly drawn) [Example 51b, cyclobutyl (2S)-2-[[[(2R,3S,4R,5R)-5-(4-aminopyrrolo[2,1-f][1,2,4]triazin-7-yl)-5-cyano-3,4-dihydroxy-tetrahydrofuran-2-yl]methoxy-(cyclopropylphenoxy)phosphoryl]amino]propanoate], the half-maximal effective concentration (EC50) was found to be 0.0868 µM.

For the molecule `CC(C)C(=O)O[C@H]1[C@@H](OC(=O)C(C)C)[C@](C#N)(c2ccc3c(N)ncnn23)O[C@@H]1COP(=O)(N[C@@H](C)C(=O)OC1CCC1)Oc1ccc(C2CC2)cc1` (stereo partly drawn) [Example 52b], the concentration giving a half-maximal response (EC50) was 0.0254 µM.

Consider `CCOC(=O)[C@H](C)NP(=O)(OC[C@H]1O[C@@](C#N)(c2ccc3c(N)ncnn23)[C@H](O)[C@@H]1O)Oc1ccc(C(C)C)cc1` (stereo partly drawn) [Example 63b], for which the concentration for a half-maximal effect (EC50) is 0.0986 µM.

For `CCC(CC)COC(=O)[C@H](C)NP(=O)(OC[C@H]1O[C@@](C#N)(c2ccc3c(N)ncnn23)[C@H](O)[C@@H]1O)Oc1cccc(C(C)(C)C)c1` (stereo partly drawn) [Example 68b], the EC50 is 0.0344 µM.

The record behind these values is patent US12404289B2 (Gilead Sciences, Inc., priority 2020, dated 2025).
